Data reported in patent US20060079453A1, “Hla binding peptides and their uses” (priority 2002, published 2006).
Where “and” joins values, the source holds several entries; their conditions need not be identical. Equal values may be shown once. Read-outs that look alike come from different tables or passages of the source. No end group written: not given here.

What was measured:
[1] = target: H-2 Db (Mus musculus, UniProt P01899); test: biochemical; format: binding, murine; details: Db
[2] = target: HLA-A*0101 (Homo sapiens, UniProt P04439, A114D/A174V/A182V/D101N/D185E/E176A/E190D/L180R/Q94H/R68K/S129P/T187R/V100A/V91M/W191G); test: biochemical; format: binding; details: Binding affinity to A*0101 (expressed as an IC50)
[3] = target: HLA-A*3002 (Homo sapiens, UniProt P04439, D101N/D140H/D185E/E176R/F33S/G80R/H175R/K168Q/Q94H/R138E/R41S/V100E); test: biochemical; format: binding
[4] = target: HLA-A*2301 (Homo sapiens, UniProt P04439, D101N/D140Y/D185E/E176V/E190D/F33S/G103R/G107R/H175R/I119L/I121M/I306V/K168Q/K335N/L105A/L300P/N151K/N90K/P307H/Q86E/Q94H/R106L/R138H/R89G/T104I/T345S/V100E/W191G/Y123F); test: biochemical; format: binding
[5] = target: HLA-A*2902 (Homo sapiens, UniProt P04439, A270S/D101N/D185E/E176V/E277Q/E87Q/F33T/G231S/H175R/I121M/I218V/I322F/K168Q/L300P/L318F/M331R/P208A/P217A/Q86L/T323A/T345S/V100A/V358M); test: MHC molecular binding / Capture assay, IC50: A*2902
[6] = target: HLA-A*2402 (Homo sapiens, UniProt P04439, D101N/D140Y/D185E/E176V/E190D/F33S/G103R/G107R/I119L/I121M/I306V/K335N/L105A/L180Q/L300P/N151K/N90K/Q86E/Q94H/R106L/R138H/R89G/T104I/T345S/V100E/W191G/Y123F); test: MHC molecular binding / Capture assay, IC50: A*2402
[7] = Binding affinity to A*3002 (expressed as an IC50)
[8] = Binding affinity to A*2902 (expressed as an IC50)

H-2 Db, sequence (P61769 21-119): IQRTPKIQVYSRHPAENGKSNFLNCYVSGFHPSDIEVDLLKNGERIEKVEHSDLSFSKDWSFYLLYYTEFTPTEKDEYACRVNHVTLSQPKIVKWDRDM
H-2 Db, sequence (P01899 25-362): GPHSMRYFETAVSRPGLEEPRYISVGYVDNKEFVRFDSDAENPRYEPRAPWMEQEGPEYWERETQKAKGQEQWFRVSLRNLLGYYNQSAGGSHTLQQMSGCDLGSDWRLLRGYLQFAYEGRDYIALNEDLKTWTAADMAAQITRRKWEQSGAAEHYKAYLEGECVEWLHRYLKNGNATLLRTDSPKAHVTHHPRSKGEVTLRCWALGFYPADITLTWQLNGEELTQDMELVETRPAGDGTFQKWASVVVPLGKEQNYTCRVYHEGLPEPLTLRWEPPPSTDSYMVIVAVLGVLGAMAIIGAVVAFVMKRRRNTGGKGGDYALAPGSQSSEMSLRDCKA

Row | Molecule | IC50 [2] | IC50 [3] [nM] | IC50 [5] [nM] | further results
1 | CSCC[C@H](NC(=O)[C@H](C)NC(=O)[C@H](C)NC(=O)[C@H](C)NC(=O)[C@H](CC(N)=O)NC(=O)[C@H](C)NC(=O)[C@H](C)NC(=O)[C@H](C)NC(=O)[C@H](C)NC(=O)[C@H](C)NC(=O)[C@H](C)N)C(=O)O |  |  |  | IC50 [1]: 257 nM
2 | CSCC[C@H](NC(=O)[C@H](C)NC(=O)[C@H](C)NC(=O)[C@H](C)NC(=O)[C@H](C)NC(=O)[C@H](Cc1ccc(O)cc1)NC(=O)[C@H](C)NC(=O)[C@H](C)NC(=O)[C@H](C)NC(=O)[C@H](C)N)C(=O)O |  |  |  | IC50 [1]: > 44000 nM
3 | CSCC[C@H](NC(=O)[C@H](C)NC(=O)[C@H](C)NC(=O)[C@H](Cc1ccc(O)cc1)NC(=O)[C@H](C)NC(=O)[C@H](C)NC(=O)[C@H](C)NC(=O)[C@H](C)N)C(=O)O |  |  |  | IC50 [1]: > 44000 nM
4 | CC(C)[C@H](NC(=O)[C@@H](NC(=O)[C@H](CC(=O)O)NC(=O)[C@H](CO)NC(=O)[C@H](CC(N)=O)NC(=O)[C@@H](NC(=O)CNC(=O)[C@H](CS)NC(=O)[C@@H](N)Cc1ccccc1)C(C)C)[C@@H](C)O)C(=O)O |  |  |  | IC50 [1]: 206 nM and 166 nM
5 | CC[C@H](C)[C@H](NC(=O)[C@H](Cc1ccccc1)NC(=O)[C@H](CCC(N)=O)NC(=O)CNC(=O)[C@H](CC(N)=O)NC(=O)[C@H](CCC(N)=O)NC(=O)[C@@H]1CCCN1C(=O)[C@H](CCC(N)=O)NC(=O)[C@@H](N)Cc1ccccc1)C(=O)N[C@@H](Cc1c[nH]cn1)C(=O)N[C@@H](Cc1ccccc1)C(=O)N[C@@H](Cc1ccc(O)cc1)C(=O)O |  |  |  | IC50 [1]: 280 nM
6 | CC[C@H](C)[C@H](N)C(=O)N[C@@H](CO)C(=O)N[C@@H](CCC(=O)O)C(=O)N[C@@H](Cc1ccc(O)cc1)C(=O)N[C@@H](CCCNC(=N)N)C(=O)N[C@@H](Cc1c[nH]cn1)C(=O)N[C@@H](Cc1ccc(O)cc1)C(=O)N[C@@H](CC(N)=O)C(=O)N[C@@H](Cc1ccc(O)cc1)C(=O)O | 25 nM |  |  | IC50 [3, 7]: 32 nM; IC50 [4]: > 23600 nM
7 | CC[C@H](C)[C@H](N)C(=O)N[C@H](C(=O)N[C@@H](Cc1ccc(O)cc1)C(=O)N[C@@H](CCCCN)C(=O)N[C@@H](CC(N)=O)C(=O)N[C@@H](CO)C(=O)N[C@H](C(=O)N[C@@H](Cc1c[nH]c2ccccc12)C(=O)N[C@H](C(=O)O)C(C)C)[C@@H](C)O)[C@@H](C)O |  |  |  | IC50 [1]: 409 nM and 276 nM
8 | CC(C)C[C@H](NC(=O)[C@@H](NC(=O)[C@@H](N)CCCCN)[C@@H](C)O)C(=O)N[C@@H](Cc1ccc(O)cc1)C(=O)N[C@@H](CCC(N)=O)C(=O)N[C@@H](CO)C(=O)N[C@@H](CC(N)=O)C(=O)N1CCC[C@H]1C(=O)N[C@@H](Cc1ccc(O)cc1)C(=O)O | 6910 nM |  |  | IC50 [3, 7]: 35 nM; IC50 [5, 8]: 1700 nM
9 | CC[C@H](C)[C@H](NC(=O)[C@@H](NC(=O)[C@@H]1CCCN1C(=O)[C@H](Cc1c[nH]cn1)NC(=O)[C@H](CO)NC(=O)[C@H](Cc1ccc(O)cc1)NC(=O)[C@@H](N)CC(C)C)[C@@H](C)CC)C(=O)N[C@@H](CC(C)C)C(=O)NCC(=O)N[C@@H](Cc1ccccc1)C(=O)O | 3170 nM |  |  | IC50 [6]: 2.6 nM; IC50 [4]: 5.4 nM
10 | CC[C@H](C)[C@H](NC(=O)[C@@H](NC(=O)[C@@H](NC(=O)[C@H](Cc1ccccc1)NC(=O)[C@H](C)NC(=O)[C@H](CCCNC(=N)N)NC(=O)CNC(=O)[C@@H]1CCCN1C(=O)CNC(=O)[C@@H](N)CCCNC(=N)N)C(C)C)[C@@H](C)O)C(=O)O |  |  |  | IC50 [1]: 22000 nM
11 | C[C@H](NC(=O)[C@H](CCC(N)=O)NC(=O)[C@@H](N)CCCNC(=N)N)C(=O)N[C@@H](CCCCN)C(=O)N[C@@H](CCC(N)=O)C(=O)N[C@@H](Cc1c[nH]cn1)C(=O)N[C@H](C(=O)N[C@@H](CS)C(=O)N[C@@H](Cc1ccc(O)cc1)C(=O)O)[C@@H](C)O | > 135000 nM |  |  | IC50 [3, 7]: 108 nM; IC50 [5, 8]: 155000 nM
12 | CC[C@H](C)[C@H](NC(=O)[C@H](CC(=O)O)NC(=O)[C@H](CCC(N)=O)NC(=O)[C@@H](N)CCCNC(=N)N)C(=O)N[C@@H](CC(C)C)C(=O)N[C@@H](CC(=O)O)C(=O)N[C@@H](CC(C)C)C(=O)N[C@@H](Cc1c[nH]c2ccccc12)C(=O)N[C@H](C(=O)N[C@@H](Cc1ccc(O)cc1)C(=O)O)C(C)C | 9000 nM |  |  | IC50 [3, 7]: 95 nM; IC50 [5, 8]: 13900 nM
13 | CC[C@H](C)[C@H](NC(=O)[C@H](CCCCN)NC(=O)[C@H](CCC(=O)O)NC(=O)[C@H](CC(C)C)NC(=O)[C@@H](N)[C@@H](C)O)C(=O)N[C@H](C(=O)N[C@@H](CC(N)=O)C(=O)N[C@H](C(=O)N[C@@H](CCC(=O)O)C(=O)N[C@@H](CC(C)C)C(=O)N[C@@H](Cc1ccc(O)cc1)C(=O)O)[C@@H](C)O)[C@@H](C)O | 17 nM |  |  | IC50 [3, 7]: 3900 nM; IC50 [5, 8]: 8400 nM
14 | CC(C)C[C@H](NC(=O)CNC(=O)[C@@H](NC(=O)[C@H](CC(N)=O)NC(=O)[C@@H](NC(=O)[C@H](CC(C)C)NC(=O)[C@H](CCCCN)NC(=O)[C@H](CCC(=O)O)NC(=O)[C@H](CC(C)C)NC(=O)[C@@H](N)[C@@H](C)O)[C@@H](C)O)[C@@H](C)O)C(=O)N[C@@H](Cc1ccc(O)cc1)C(=O)O | 77 nM and 23 nM | 92 | 991 | IC50 [5, 8]: 5500 nM
15 | CC(C)C[C@H](NC(=O)[C@H](CC(=O)O)NC(=O)[C@H](CCC(N)=O)NC(=O)[C@@H](N)[C@@H](C)O)C(=O)N[C@H](C(=O)N[C@@H](CCC(N)=O)C(=O)N[C@@H](CCC(=O)O)C(=O)N[C@@H](CCCCN)C(=O)N[C@@H](Cc1ccc(O)cc1)C(=O)O)C(C)C | 57 nM | 3800 | 33300 | 
16 | CC[C@H](C)[C@H](NC(=O)[C@H](Cc1c[nH]cn1)NC(=O)[C@H](Cc1ccccc1)NC(=O)[C@@H](N)Cc1c[nH]c2ccccc12)C(=O)N[C@@H](CO)C(=O)N[C@@H](CS)C(=O)N[C@@H](CC(C)C)C(=O)N[C@H](C(=O)N[C@@H](Cc1ccccc1)C(=O)O)[C@@H](C)O | 85300 nM | 75100 | 95 | IC50 [6]: 204 nM; IC50 [4]: 11 nM
17 | ELDSALEIPY | 38 nM | 38300 | 82200 | 
18 | ETRHYNYSLY | 445 nM | 29 | 5460 | 
19 | ETSSALEIPY | 19 nM | 7140 | 12000 | 
20 | EYDHYCYSLY | 110000 nM | 77 | 799 | 
21 | FQAAESNERY | 8960 nM |  |  | IC50 [3, 7]: 372 nM; IC50 [5, 8]: 1780 nM
22 | FTDLRIVY | 26 nM |  |  | IC50 [3, 7]: 8060 nM; IC50 [5, 8]: 813 nM
23 | FTSKVRKYRY | 64 nM and 37 nM | 52 | 6680 | 
24 | ISDYRHYNY | 16 nM and 28 nM |  | 45 | 
25 | ITDIILECVY | 1.8 nM | 505 | 7660 | 
